Data from the supplement of paper PMC12513837.

Compound: CC(=O)N1CCc2c(c(N3CCCc4cc(-c5cnn(C)c5)c(C(F)F)cc43)nn2C2CCC(CN3CCN(c4ccc5c(c4)C(=O)N(C4CCC(=O)NC4=O)C5=O)CC3)CC2)C1 [CBPD-409]
Test: AUC of viability dose-response curve (relative to vehicle, 8 doses up to 10 µM) (fraction); higher = less sensitive (more viable); extreme values may be limits of the assay
Description: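 PRISM multiplexed pooled barcoded cell line viability screen at the Broad Institute, 887 cancer cell lines treated with CBPD-409 (p300/CBP PROTAC degrader) at 8 concentrations in threefold dilution, top dose 10 µM. The read-out is the area under the dose-response curve of relative viability versus vehicle (n=3). AUC < 0.3 is called strongly sensitive and AUC > 0.8 resistant.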

TTC549_SOFT_TISSUE
AUC of viability dose-response curve: 0.52

TTC642_SOFT_TISSUE
AUC of viability dose-response curve: 0.541

TTC709_SOFT_TISSUE
AUC of viability dose-response curve: 0.23

TTC1240_SOFT_TISSUE
AUC of viability dose-response curve: 0.187

TT_OESOPHAGUS
AUC of viability dose-response curve: 0.566

TT_THYROID
AUC of viability dose-response curve: 0.15

TUHR4TKB_KIDNEY
AUC of viability dose-response curve: 1

TYKNU_OVARY
AUC of viability dose-response curve: 0.386

U2OS_BONE
AUC of viability dose-response curve: 1

U87MG_CENTRAL_NERVOUS_SYSTEM
AUC of viability dose-response curve: 0.732

U118MG_CENTRAL_NERVOUS_SYSTEM
AUC of viability dose-response curve: 0.983

U178_CENTRAL_NERVOUS_SYSTEM
AUC of viability dose-response curve: 0.636

U251MG_CENTRAL_NERVOUS_SYSTEM
AUC of viability dose-response curve: 0.873

U266B1_HAEMATOPOIETIC_AND_LYMPHOID_TISSUE
AUC of viability dose-response curve: 0.784

U343_CENTRAL_NERVOUS_SYSTEM
AUC of viability dose-response curve: 1

U937_HAEMATOPOIETIC_AND_LYMPHOID_TISSUE
AUC of viability dose-response curve: 1

U2904_HAEMATOPOIETIC_AND_LYMPHOID_TISSUE
AUC of viability dose-response curve: 0.826

U2940_HAEMATOPOIETIC_AND_LYMPHOID_TISSUE
AUC of viability dose-response curve: 1

U2973_HAEMATOPOIETIC_AND_LYMPHOID_TISSUE
AUC of viability dose-response curve: 0.734

UACC62_SKIN
AUC of viability dose-response curve: 0.901

UACC257_SKIN
AUC of viability dose-response curve: 1

UBLC1_URINARY_TRACT
AUC of viability dose-response curve: 0.437

ULA_HAEMATOPOIETIC_AND_LYMPHOID_TISSUE
AUC of viability dose-response curve: 0.813

UMRC3_KIDNEY
AUC of viability dose-response curve: 0.929

UMRC7_KIDNEY
AUC of viability dose-response curve: 0.773

UMUC1_URINARY_TRACT
AUC of viability dose-response curve: 0.703

UMUC5_URINARY_TRACT
AUC of viability dose-response curve: 0.749

UMUC6_URINARY_TRACT
AUC of viability dose-response curve: 0.585

UMUC7_URINARY_TRACT
AUC of viability dose-response curve: 1

UMUC10_URINARY_TRACT
AUC of viability dose-response curve: 0.511

UMUC11_URINARY_TRACT
AUC of viability dose-response curve: 0.736

UMUC13_URINARY_TRACT
AUC of viability dose-response curve: 0.199

UO31_KIDNEY
AUC of viability dose-response curve: 1

UPCISCC072_UPPER_AERODIGESTIVE_TRACT
AUC of viability dose-response curve: 0.625

UPCISCC111_UPPER_AERODIGESTIVE_TRACT
AUC of viability dose-response curve: 1

UPCISCC116_UPPER_AERODIGESTIVE_TRACT
AUC of viability dose-response curve: 0.827

UW228_CENTRAL_NERVOUS_SYSTEM
AUC of viability dose-response curve: 1

VAESBJ_SOFT_TISSUE
AUC of viability dose-response curve: 0.8

VAL_HAEMATOPOIETIC_AND_LYMPHOID_TISSUE
AUC of viability dose-response curve: 0.56

VMCUB1_URINARY_TRACT
AUC of viability dose-response curve: 0.443

VMRCRCW_KIDNEY
AUC of viability dose-response curve: 0.631

VMRCRCZ_KIDNEY
AUC of viability dose-response curve: 0.584

WAOSEL_HAEMATOPOIETIC_AND_LYMPHOID_TISSUE
AUC of viability dose-response curve: 0.826

WERIRB1_AUTONOMIC_GANGLIA
AUC of viability dose-response curve: 1

WM88_SKIN
AUC of viability dose-response curve: 0.893

WM793_SKIN
AUC of viability dose-response curve: 0.949

WM983B_SKIN
AUC of viability dose-response curve: 0.774

WM1799_SKIN
AUC of viability dose-response curve: 0.639

WM2664_SKIN
AUC of viability dose-response curve: 0.988

WSUDLCL2_HAEMATOPOIETIC_AND_LYMPHOID_TISSUE
AUC of viability dose-response curve: 0.505

YAPC_PANCREAS
AUC of viability dose-response curve: 1

YD8_UPPER_AERODIGESTIVE_TRACT
AUC of viability dose-response curve: 0.641

YD10B_UPPER_AERODIGESTIVE_TRACT
AUC of viability dose-response curve: 1

YD15_SALIVARY_GLAND
AUC of viability dose-response curve: 0.397

YD38_UPPER_AERODIGESTIVE_TRACT
AUC of viability dose-response curve: 0.559

YH13_CENTRAL_NERVOUS_SYSTEM
AUC of viability dose-response curve: 0.75

YKG1_CENTRAL_NERVOUS_SYSTEM
AUC of viability dose-response curve: 0.584

YSCCC_BILIARY_TRACT
AUC of viability dose-response curve: 0.853

ZR751_BREAST
AUC of viability dose-response curve: 0.411
